Laboratory results: patent US20140128336A1, “MEDICAL PRODUCTS FOR USE IN CONDITIONS RELATED TO MICROBIAL INFECTIONS IN THE UPPER AERODIGESTIVE TRACT” (BIOHIT OYJ, priority 2011, published 2014)

What was measured:
[1] = test system: H. pylori strains (NCTC 11637, ATCC 43504); test: Modified pellicle assay for H. pylori biofilm formation; assay type: cell-based, Helicobacter pylori
Excerpt: In this example, H. pylori strains (NCTC 11637, National Culture Collection, London, UK, and ATCC 43504, American Type Culture Collection), grown in liquid culture without shaking, were examined to determine their ability to form biofilms in the presence and absence of L-cysteine. The bacteria were screened for biofilm production using modified pellicle assay as previously described by Joshua et al. 2006 (14). The formation of pellicles at the liquid-gas interface of cultures grown without shaking was observed after 3-6 days. All isolates were grown in 13-by 125-mm glass test tubes containing 6 ml of BHI broth supplemented with 2% (w/v) β-cyclodextrin (BCD; Sigma) in the presence and absence of L-cysteine. The bacterial concentration was adjusted equivalently to approximately 0.5 McFarland standard (˜10^8 CFU/ml). The cultures were incubated under microaerobic conditions (N2 85%; O2 5%; CO2 10%) at 35° C. for 7 days without shaking. Development of pellicle and/or attached bacterial cells at interior surface of test tube at the air-liquid interface, representing as biofilm, was examined daily. In the tests using L-cysteine and N-acetyl-cysteine, increasing amounts of L-cysteine or N-acetyl-cysteine were added in increasing concentrations to the culture medium.

H. pylori = test: Open-label randomized trial, eradication of Helicobacter pylori; assay type: in vivo, human; settings: patients with at least four eradication failures; 600 mg NAC once a day for seven days before culture-guided antibiotic regimen; standard group 4/20
Method: In this open-label randomized trial, 50% of patients with at least four H. pylori eradication failures received before culture-guided antibiotic regimen 600 mg of N-acetylcysteine (NAC) once a day for seven days. In the NAC-pretreatment group H. pylori were successfully eradicated in 13/20 and in standard group only in 4/20 patients (p<01).

[2] = test system: Cladosporium cladosporioides; settings: cited from earlier work
C. cladosporioides = settings: block containing cysteine; cited from earlier work

Compound | inhibition of H. pylori biofilm formation ([1]; 2 mg/ml in culture medium) | inhibition of H. pylori biofilm formation ([1]; 10 mg/ml in culture medium) | inhibition of H. pylori biofilm formation ([1]; 20 mg/ml in culture medium) | H. pylori successfully eradicated (H. pylori) | production of ATP in C. cladosporioides [2] | growth of Cladosporium cladosporioides ([2]; cultured with cysteine) | biofilm of C. cladosporioides on surface of silicone block (C. cladosporioides)
N[C@@H](CS)C(=O)O [L-cysteine] | partly | completely | completely |  |  |  | 
CC(=O)N[C@@H](CS)C(=O)O [N-acetylcysteine, reference compound] | partly | completely | completely | 13/20 |  |  | 
N[C@@H](CS)C(=O)O [cysteine] |  |  |  |  | inhibited | completely and statically inhibited | not covered with biofilm
